The text below walks through data of EP0373623A2, “Pharmaceutical compositions useful in potentiating natural killer cell activity” (MERRELL DOW PHARMACEUTICALS INC., priority 1988, dated 1990).

In this assay the test system is Hepatic metastases. Kind of assay: Induced hepatic metastases after intrasplenic tumor cell injection. Format: in vivo, C57BL/6 mice. The following applies: DAP 100 mg/kg; for Metastic foci: mean ± S.E., n=8; for % Reduction: reduction in metastic foci from PBS control group. Here is the method: Hepatic metastases were induced as follows. C57BL/6 mice were anesthetized by […] of pentobarbital. The mice were prepped with 70% ethanol, dried with a sterile gauze, and then, with the use of sterile scissors, a small left subcostal incision was made. The spleen was exposed, and its short gastric vessels along with the gastrosplenic ligament were cut, allowing the spleen to be brought onto the animal's abdominal wall attached to its splenic pedicle. […] of a single cell suspension containing 3 x 10⁵ tumor cells in HBSS was injected into the upper pole of the exposed extraabdominal spleen. After the injection was completed, the needle was removed, and a period of 1 minute was allowed to elapse to permit tumor cells to be flushed into the portal circulation. The splenic pedicle was clipped, the spleen was removed, and splenic pedicle was dropped i.p. The abdominal wall musculature and skin were closed in one layer. The animals were randomly allocated to their respective treatment groups and were allowed to recover. By day 3 after tumor injection, micrometastases were apparent histologically.
Each group was then treated with DAP, intraperitonealy, subcutaneously, or orally. A control group was treated with phosphate buffered saline (PBS). Metastic foci was determined and the percent reduction in metastic foci from the control group was determined with each group treated with DAP as follows: […]

For the compound `CC(=O)NCCCCNC(C)=O` [DAP, Diacetylputrescine], the Metastic foci is, setting by setting: (d1-10, i.p.) 40.8 ± 14.7; (d1-10, p.o.) 27.2 ± 7.1; (d1-10, s.c.) 31.0 ± 8.4. In addition, the “% Reduction” value stood at 65.9% (d1-10, i.p.); 77.3% (d1-10, p.o.); 74.1% (d1-10, s.c.).
